Data reported in patent US20180119156A1, “[…] GENE EXPRESSION” (priority 2015, published 2018).

What was measured:
[1] = system: E. coli DH10B-T7His-Theo4; format: cell-based, Escherichia coli
Procedure: The performance of the cascade was measured using GFPuv expression (FIG. 12). Specifically, the theophylline dependency of the cascade at 0.8 mg/L rhamnose was measured. […] Additionally, expression of GFPuv over a wide range of rhamnose and theophylline concentrations was determined.
E. coli DH10B-T7His-Theo4 was grown overnight at 37° C. in LB medium containing kanamycin (50 mg/L). A 96 well 2 ml culture plate (Greiner) was filled with a concentrate of theophylline and L-rhamnose. […] Culture plates were incubated at 37° C. overnight under continuous shaking. The bacteria were centrifuged for 10 minutes at 4700 rpm in a Sorval Legend centrifuge. The supernatant was cleared and the cell pellet was resuspended in 500 μL 50 mM Tris-HCl pH 7.5. After resuspension, the plates were incubated at 37° C. for 1 hour to allow maturation of the GFPuv. 100 μL of suspension was pipetted into a 98 well black plate with clear bottom (Perkin Elmer) and measured with a Synergy MX plate reader. The cell density was measured by scattering at 600 nm and the fluorescence was measured at an excitation wavelength of 385 nm with a width of 20 nm and an emission wavelength of 508 nm with 20 nm width with a gain of 50. The background fluorescence and background scattering were subtracted and the fluorescence was divided by the scattering at 600 nm. The background fluorescence of bacteria without either GFPuv or T7His polymerase was negligible, but the fluorescence caused by other components than GFPuv in the bacteria was still subtracted.
The theophylline dependency of the cascade in response to differing concentrations of rhamnose was measured. E. coli DH10B-T7His-Theo4 diluted from an overnight culture were grown overnight in a 2 mL culture plate containing a variable amount of L-rhamnose and theophylline. The medium was cleared and the bacteria were resuspended in 50 mM Tris-HCl pH 7.5. The fluorescence was measured at an excitation wavelength of 385 nm and an emission wavelength of 508 nm. The cell density was measured by scattering at 600 nm.

[2] = system: thyA knockout strain of E. coli; settings: single theophylline-dependent intron, background subtracted; cited from earlier work
[3] = system: thyA-deficient E. coli DH10B strain
Procedure: A comparison of a single intron construct with a construct of the present invention featuring a tandem self-splicing intron was made (FIG. 9). Growth (OD600) was plotted against time (minutes) in the presence (1 mM) and absence (0 mM) of theophylline for the construct designed by Thompson et al. (Thompson et al. 2002 BMC Biotechnol. 2: 21) utilising one theophylline-dependent intron in thyA, in a thyA-deficient E. coli DH10B strain (FIG. 9A). […] Growth was measured in the same way for a construct containing an E. coli thyA gene interrupted by two theophylline-dependent introns, which was transformed into a thyA-deficient E. coli DH10B strain. The overnight growth was plotted against the theophylline concentration in the medium (FIG. 9B).

SMILES	background expression, % of the maximum expression ([1]; fully induced with rhamnose, theophylline absent, one intron cascade)	theophylline-induced growth, % of the parental intron [2]	fold-change in GFPuv fluorescence caused by theophylline ([1]; at any L-rhamnose concentration)	signal of fully induced system relative to strong TacI promoter (pSC034f) ([1]; fully induced with rhamnose and theophylline)	concentration above which theophylline became slightly toxic ([3]; overnight growth, E. coli DH10B thyA-deficient)	Kd ([3]; read-out: apparent kd value, Michaelis-Menten-like profile of overnight growth vs theophylline concentration, two introns in thyA) [µM]
C[C@H](O)[C@H](O)[C@@H](O)[C@@H](O)C=O [rhamnose, L-rhamnose]	about 7.5%					
Cn1c(=O)c2[nH]cnc2n(C)c1=O [theophylline]		approximately 40%	around 15 times	5-6 times	Above 1 mM	100 to 200
